Several values for one entry are separate records, joined by “and”; a condition that tells them apart may be missing. Equal values may be shown once. Toxic doses and inconclusive results are not listed.

This is an account of results in PubChem BioAssay AID256 (DTP/NCI, 2004).

The experiment relates to CD2F1 mice, L1210 leukemia ip, survival T/C. Kind of experiment: NCI In Vivo Anticancer Drug Screen. Data for tumor model L1210 Leukemia (intraperitoneal) in CD2F1 (CDF1) mice. As to conditions: higher = longer survival. The procedure, abridged:
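Each value reflects a quotient of treated over vehicle control outcomes in mice with a transplanted tumor.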

Where [1] appears, read: endpoint: mean survival time, dose: 100.0 mg/kg/injection, schedule: Q04DX003 (ip), vehicle: saline.
[2] abbreviates: endpoint: mean survival time, dose: 100.0 mg/kg/injection, schedule: Q04DX003 (ip), vehicle: saline with Tween-80.
Setting [3] is: endpoint: mean survival time, dose: 200.0 mg/kg/injection, schedule: Q04DX003 (ip), vehicle: saline with Tween-80.
Setting [4] is: endpoint: mean survival time, dose: 400.0 mg/kg/injection, schedule: Q04DX003 (ip), vehicle: saline with Tween-80.
Where [5] appears, read: endpoint: mean survival time, dose: 50.0 mg/kg/injection, schedule: Q01DX009 (ip), vehicle: saline with Tween-80.
Where [6] appears, read: endpoint: mean survival time, dose: 100.0 mg/kg/injection, schedule: Q01DX009 (ip), vehicle: saline with Tween-80.
Setting [7] is: endpoint: mean survival time, dose: 200.0 mg/kg/injection, schedule: Q01DX009 (ip), vehicle: saline with Tween-80.
Setting [8] is: endpoint: mean survival time, dose: 400.0 mg/kg/injection, schedule: Q01DX009 (ip), vehicle: saline with Tween-80.
[9] abbreviates: endpoint: mean survival time, dose: 50.0 mg/kg/injection, schedule: Q04DX003 (ip), vehicle: saline.

As for `COc1cc2c(cc1OC)C(C)=NCC2`, the T/C under setting [1] was 104 % of control.

With `CCOC(=O)C(C(C)=O)C1=C(Cl)C(=O)c2ccccc2C1=O` (stereo unspecified), the T/C was 95 % of control (endpoint: mean survival time, dose: 75.0 mg/kg/injection, schedule: Q01DX001 (ip), vehicle: other); 94 % of control (endpoint: mean survival time, dose: 150.0 mg/kg/injection, schedule: Q01DX001 (ip), vehicle: other); 92 % of control (endpoint: mean survival time, dose: 300.0 mg/kg/injection, schedule: Q01DX001 (ip), vehicle: other).

As to `OC1COC(C(F)(F)F)(C(F)(F)F)C1` (stereo unspecified), the T/C reads like this: under setting [2], 94 % of control; under setting [3], 93 % of control; under setting [4], 96 % of control.

With `COc1cc2c(cc1Oc1c(O)c(OC)cc3c1C(C)N(C)CC3)C(C)N(C)CC2` (stereo unspecified), for the setting “endpoint: mean survival time, dose: 75.0 mg/kg/injection, schedule: Q01DX001 (ip), vehicle: saline”, the T/C is 101 % of control.

Take `O=[N+]([O-])O`: the T/C was 86 % of control under setting [5] and 86 % of control under setting [6].

For the molecule `COC(=O)C(C)CC(C)(C=O)OC` (stereo unspecified), the T/C was 102 % of control under setting [6], 96 % of control under setting [7] and 96 % of control under setting [8].

Take `OCc1ccc(Cl)c(Cl)c1`: the T/C is 97 % of control under setting [2], 102 % of control under setting [3] and 96 % of control under setting [4].

For the molecule `Cc1ccc(C2=NNc3n[nH]c(=S)n3N2)cc1`, the T/C was 101 % of control under setting [6]; 95 % of control under setting [2]; 96 % of control under setting [7]; 93 % of control under setting [3]; 91 % of control under setting [4].

As to `O=C(Nc1ccc(C2=NCCN2)cc1)c1ccc(C(=O)Nc2ccc(C3=NCCN3)cc2)c(NC(=O)c2ccc(C(=O)Nc3cc(C(=O)Nc4ccc(C5=NCCN5)cc4)ccc3C(=O)Nc3ccc(C4=NCCN4)cc3)cc2)c1`, the T/C is 101 % of control (endpoint: mean survival time, dose: 12.5 mg/kg/injection, schedule: Q01DX008 (iv), vehicle: other); 101 % of control (endpoint: mean survival time, dose: 25.0 mg/kg/injection, schedule: Q01DX008 (iv), vehicle: other); 103 % of control (endpoint: mean survival time, dose: 50.0 mg/kg/injection, schedule: Q01DX008 (iv), vehicle: other).

With `CC(C)C(O)(c1ccccc1)C(O)(c1ccccc1)C(C)C` (stereo unspecified), the T/C by setting is: (endpoint: mean survival time, dose: 50.0 mg/kg/injection, schedule: Q04DX002 (ip), vehicle: saline with Tween-80) 100 % of control; (endpoint: mean survival time, dose: 100.0 mg/kg/injection, schedule: Q04DX002 (ip), vehicle: saline with Tween-80) 96 % of control; (endpoint: mean survival time, dose: 200.0 mg/kg/injection, schedule: Q04DX002 (ip), vehicle: saline with Tween-80) 100 % of control.

`FC(F)(F)c1cccc([PH+](c2cccc(C(F)(F)F)c2)c2cccc(C(F)(F)F)c2)c1.FC(F)(F)c1cccc([PH+](c2cccc(C(F)(F)F)c2)c2cccc(C(F)(F)F)c2)c1.[Cl][Hg][Cl]`: the T/C runs as follows: (endpoint: mean survival time, dose: 12.5 mg/kg/injection, schedule: Q01DX009 (ip), vehicle: Klucel (hydroxypropylcellulose) (HPC)) 101 % of control; (endpoint: mean survival time, dose: 25.0 mg/kg/injection, schedule: Q01DX009 (ip), vehicle: Klucel (hydroxypropylcellulose) (HPC)) 108 % of control; (endpoint: mean survival time, dose: 50.0 mg/kg/injection, schedule: Q01DX009 (ip), vehicle: Klucel (hydroxypropylcellulose) (HPC)) 89 % of control.

As to `COC(CCN1C(=O)c2ccccc2C1=O)C(Br)C(=O)O` (stereo unspecified), the T/C runs as follows: under setting [6], 92 % of control; under setting [2], 101 % of control; under setting [7], 92 % of control; under setting [3], 97 % of control; under setting [8], 89 % of control; under setting [4], 98 % of control.

Regarding `O=[N+]([O-])c1ccccc1SSc1ccccc1[N+](=O)[O-]`, the T/C under setting [2] was 97 % of control, the T/C under setting [3] is 95 % of control and the T/C under setting [4] was 104 % of control.

For the molecule `C[C@H]1CP(c2ccccc2)(c2ccccc2)(c2ccccc2)O[C@@]1(C(=O)c1ccccc1)c1ccccc1`, where the note is “endpoint: mean survival time, dose: 200.0 mg/kg/injection, schedule: Q01DX001 (ip), vehicle: saline with Tween-80”, the T/C was 91 % of control.

Consider `CC(O)C1CCC2C3CCC4CC(O)CCC4(C)C3CCC12C` (stereo unspecified), for which the T/C is 95 % of control under setting [2], 96 % of control under setting [3] and 101 % of control under setting [4].

For `CCCCCCCCCCCC(CCCCCCCCCC)CCCCCCCCCC`, the T/C by setting is: (endpoint: mean survival time, dose: 100.0 mg/kg/injection, schedule: Q01DX001 (ip), vehicle: saline sonified) 101 % of control; (endpoint: mean survival time, dose: 200.0 mg/kg/injection, schedule: Q01DX001 (ip), vehicle: saline sonified) 104 % of control; (endpoint: mean survival time, dose: 400.0 mg/kg/injection, schedule: Q01DX001 (ip), vehicle: saline sonified) 108 % of control.

Turning to `C=CS(=O)(=O)CCc1ccccc1`, the T/C runs as follows: (endpoint: mean survival time, dose: 50.0 mg/kg/injection, schedule: Q01DX001 (ip), vehicle: Klucel (hydroxypropylcellulose) (HPC)) 101 % of control; (endpoint: mean survival time, dose: 100.0 mg/kg/injection, schedule: Q01DX001 (ip), vehicle: Klucel (hydroxypropylcellulose) (HPC)) 111 % of control; (endpoint: mean survival time, dose: 200.0 mg/kg/injection, schedule: Q01DX001 (ip), vehicle: Klucel (hydroxypropylcellulose) (HPC)) 108 % of control.

Take `C=CCS(=O)(=O)Cc1ccc([N+](=O)[O-])cc1`: the T/C is 105 % of control (endpoint: mean survival time, dose: 100.0 mg/kg/injection, schedule: Q04DX002 (ip), vehicle: Klucel (hydroxypropylcellulose) (HPC)); 94 % of control (endpoint: mean survival time, dose: 200.0 mg/kg/injection, schedule: Q04DX002 (ip), vehicle: Klucel (hydroxypropylcellulose) (HPC)); 105 % of control (endpoint: mean survival time, dose: 400.0 mg/kg/injection, schedule: Q04DX002 (ip), vehicle: Klucel (hydroxypropylcellulose) (HPC)).

As to `O=C(NC1CCCCC1)NC1CCC(CC2CCCCC2)CC1` (stereo unspecified), the T/C under setting [2] was 98 % of control, the T/C under setting [3] was 96 % of control and the T/C under setting [4] is 96 % of control.

For `O=C1CC(NCCO)C(=O)NN1` (stereo unspecified), the T/C was 101 % of control under setting [1]; 101 % of control (endpoint: mean survival time, dose: 200.0 mg/kg/injection, schedule: Q04DX003 (ip), vehicle: saline); 104 % of control (endpoint: mean survival time, dose: 400.0 mg/kg/injection, schedule: Q04DX003 (ip), vehicle: saline).

Regarding `CC(C)CNC(=O)Nc1ccccc1C(F)(F)F`, the T/C is 96 % of control under setting [6], 98 % of control under setting [7] and 91 % of control under setting [8].

Take `CCN(CC)CCCC(C)N` (stereo unspecified): under setting [9], the T/C is 101 % of control.

Consider `CCN(CC)CCn1[nH]c2c3ccc(=O)cc3sc3c(NCCN)ccc1c32`, for which the T/C runs as follows: (endpoint: median survival time, dose: 1.5 mg/kg/injection, schedule: Q01DX009 (ip), vehicle: water) 168 % of control; (endpoint: median survival time, dose: 1.56 mg/kg/injection, schedule: Q01DX005 (ip), vehicle: water) 154 % of control; (endpoint: median survival time, dose: 3.0 mg/kg/injection, schedule: Q01DX005 (ip), vehicle: water) 183 % of control; (endpoint: median survival time, dose: 3.0 mg/kg/injection, schedule: Q01DX009 (ip), vehicle: water) 180 % of control; (endpoint: median survival time, dose: 3.12 mg/kg/injection, schedule: Q01DX005 (ip), vehicle: water) 192 % of control and 244 % of control; (endpoint: median survival time, dose: 6.0 mg/kg/injection, schedule: Q01DX005 (ip), vehicle: water) 152 % of control. Moreover, the T/C is, setting by setting: (endpoint: median survival time, dose: 6.0 mg/kg/injection, schedule: Q01DX009 (ip), vehicle: water) 216 % of control; (endpoint: median survival time, dose: 6.25 mg/kg/injection, schedule: Q01DX005 (ip), vehicle: water) 186 % of control and 357 % of control; (endpoint: median survival time, dose: 12.0 mg/kg/injection, schedule: Q01DX005 (ip), vehicle: water) 95 % of control; (endpoint: median survival time, dose: 12.0 mg/kg/injection, schedule: Q01DX009 (ip), vehicle: water) 216 % of control; (endpoint: median survival time, dose: 12.5 mg/kg/injection, schedule: Q01DX005 (ip), vehicle: water) 231 % of control and 357 % of control.

Take `COC(=O)C(C)C(C)(O)C(C)(C)C` (stereo unspecified): the T/C runs as follows: (endpoint: mean survival time, dose: 25.0 mg/kg/injection, schedule: Q01DX009 (ip), vehicle: saline with Tween-80) 100 % of control; (endpoint: mean survival time, dose: 25.0 mg/kg/injection, schedule: Q04DX003 (ip), vehicle: saline) 103 % of control; under setting [5], 101 % of control; under setting [9], 103 % of control; under setting [6], 102 % of control; under setting [1], 98 % of control.

Turning to `CCCCN(Cc1ccccc1)CC(O)C[NH-].O=C(O)CC(=O)O.[Pt+2]` (stereo unspecified), the T/C is 98 % of control (endpoint: median survival time, dose: 10.0 mg/kg/injection, schedule: Q04DX003 (ip), vehicle: water); 105 % of control (endpoint: median survival time, dose: 20.0 mg/kg/injection, schedule: Q04DX003 (ip), vehicle: water); 101 % of control (endpoint: median survival time, dose: 27.25 mg/kg/injection, schedule: Q04DX003 (ip), vehicle: water); 109 % of control (endpoint: median survival time, dose: 40.0 mg/kg/injection, schedule: Q04DX003 (ip), vehicle: water); 101 % of control (endpoint: median survival time, dose: 54.5 mg/kg/injection, schedule: Q04DX003 (ip), vehicle: water); 105 % of control (endpoint: median survival time, dose: 80.0 mg/kg/injection, schedule: Q04DX003 (ip), vehicle: water). Moreover, under “endpoint: median survival time, dose: 109.0 mg/kg/injection, schedule: Q04DX003 (ip), vehicle: water”, the T/C was 108 % of control.
